# How the values were obtained:
# [1] = system: 80:20 (molar ratio) DMPG and DMPC lipid bilayers on porous silica beads; test: Suspension study: melittin-induced release of fluorescein dye from DMPG/DMPC coated porous beads; type: biochemical; conditions: 220 μM melittin, 25° C., 80:20 DMPG:DMPC
# Description: Experimental procedures were similar to the Triton X-100® detergent based analysis. For experiments with α-toxin, three different toxin concentrations: 15, 45 and 250 μg/mL were used at 37° C. and 25° C. Beads coated with EPC were used. In the experiments with melittin, 220 μM melittin was used with beads coated with either 100% EPC, 10:90 (molar ratio) mixture of DMPG and EPC or an 80:20 mixture of DMPG and DMPC. All melittin experiments were conducted at 25° C.
# Previous suspension studies on disruption of lipid bilayers have been performed with small unilamellar vesicles where disruption of the lipid bilayer membranes was detected by monitoring the unquenching of a highly concentrated, encapsulated dye. In the present work disruption was monitored via release of fluorescein dye from porous beads, by measuring the increase in fluorescence intensity of the supernatant at 520 nm. Beads were first suspended in Tris buffer containing the disruptor. […] The measured portion was added back to the bead sample to permit continuous monitoring. […]
# In view of the results shown in FIG. 5, the effects of melittin on other mixtures of lipids were examined. […] The increase in fluorescence intensity due to the membrane-melittin interaction, which results in the release of dye from porous beads was about 10 fold. […]
# [2] = system: 80:20 (molar ratio) DMPG and DMPC membrane on biotin containing porous beads; test: Microfluidic study: detection of membrane interaction by release of reagent (biotin, ostrich quenching-unquenching); type: biochemical; conditions: 20 μL of melittin (220 μM), flow ~1.2 μL/min
# Description: A microchannel was packed with a segment (about 1 mm) of streptavidin coated beads to which a non saturating amount of fluorescein biotin had been bound. This was followed by a segment (about 1 mm) of blank silica beads and a segment (about 2 mm) of lipid coated porous beads containing biotin. The blank silica beads were served as the spacer to prevent mixing of fluorescein biotin beads with biotin encapsulated beads. Biotin (25 mM) was encapsulated (according to the same procedure for fluorescein) with a 80:20 (molar ratio) mixture of DMPG and DMPC. A […] aliquot of either 10% Triton X-100® detergent or 220 μM melittin was injected to the column. The fluorescein biotin bead segment was irradiated at 488 nm and its fluorescence emission intensity was measured at 520 nm every 10 minutes.
# In this study the membrane-toxin interaction was investigated using the microcolumn system by monitoring a bimolecular reaction on downstream beads. […] The unquenching of fluorescence was the signal for the disruption. […] Introduction of free biotin displaced the fluorescein from the cis binding pocket thus unquenching the fluorescence signal. […]
# 20 μL of melittin (220 μM) was injected to the bead packed microchannel at 18 min. […] The initial fluorescence intensity decrease is again due to photobleaching, resulting from exposure of the fluorescein-biotin segment to the Ar ion laser. […]
# [3] = system: DMPG bilayer on PPE-coated beads; test: Microfluidic assay: detection of lipid bilayer disruption by fluorescence superquenching; type: biochemical; conditions: injected as 1:1 mixture with 120 μM AQS
# Description: The preparation of microcolumns with PPE-coated, silica beads was similar to that of with fluorescein containing beads. A 10 μL aliquot of 120 μM AQS was injected to the column. After a certain period of time, a 10 μL aliquot of 1:1 mixture of 120 μM AQS and 220 μM melittin was injected. During this process, the PPE-coated silica bead segment was irradiated at 488 nm and its fluorescence emission intensity was measured at 520 nm every 10 minutes. This experiment was repeated, while injecting 220 μM melittin first, and then 120 μM AQS.
# The feasibility of using superquenching as a method of detecting membrane-toxin interactions in microcolumns was also investigated. The fluorescence intensity of the cationic polyelectrolyte poly(p-phenylene-ethynylene) polymer (PPE) can be super-quenched by the quencher 9,10-anthraquinone-2,6-disulfonic acid (AQS). […] It has been observed in flow cytometric studies that formation of DMPG membranes on PPE-coated beads will quench the PPE fluorescence to some extent. The initial rise in fluorescence intensity was probably due to the unquenching of the PPE, due to the removal of lipid bilayers from PPE-coated beads through melittin interaction, whereas the decrease in fluorescence corresponded to superquenching of PPE by AQS after disruption of DMPG bilayer by melittin. […]
# lipid bilayer = test: Superquenching of fluorescent polymer coated lipid bilayer beads (general statement); type: biochemical; conditions: streptolysin O with cholesterol-containing lipids, mellitin with anionic lipids
# Excerpt: On the other hand, some test agents may only lead to gaps or smaller interruptions of the lipid bilayer, for example, as a result of insertion of a channel- or pore-forming proteins such as gramicidin and hemolysin. In either case, the result is either complete or partial superquenching of the fluorescent polymer. In general, non-porous beads are used for such quenching assays because the quenchable polymer is preferably coated onto the beads and is not impregnated into the beads.
# [4] = system: DMPG lipid bilayer on MS-PPE; test: Disruption of DMPG lipid bilayer on MS-PPE detected by superquenching with AQS, flow cytometry; type: biochemical
# Description: Lipid bilayers were disrupted by adding Triton X-100® detergent to the bead suspension to a final concentration of 0.25% (w/v).
# Bead suspensions of 2.5×10^5 PPE-coated microspheres in 200 μL PBS were analyzed using a FACScan flow cytometer (Becton-Dickinson, Sunnyvale, Calif.) with excitation at 488 nm. Fluorescence signals were acquired on the FL-1 channel (525 nm) using log amplification and analyzed with the CellQuest software.
# (§1) Bead suspensions of 2.5×10^5 DMPG-coated MS-PPE in 200 μL of PBS were analyzed using a FACScan flow cytometer (Becton-Dickinson, Sunnyvale, Calif.) with excitation at 488 nm. Fluorescence signals were acquired on FL-1 channel (525 nm) using log amplification and analyzed with the CellQuest software. Kinetic analysis of disruption of supported lipid bilayer by melittin was performed by acquiring real-time data with continuous mixing of samples (10^6 MS-PPE in 800 μl of PBS) using a magnetic stirrer. The raw data were analyzed using IDL Query software developed by Bruce Edwards (Cancer Center, University of New Mexico, Albuquerque, N. Mex.).
# Because an anionic lipid was used to form a lipid bilayer around MS-PPE, it was expected that MLT will disrupt the DMPG lipid bilayer by such a detergent-like action. This was tested by adding 10 μM AQS to DMPG-coated MS-PPE followed by treatment with one of the following: Triton X-100® detergent, synthetic MLT (sMLT), or natural MLT (nMLT) and immediately reading the fluorescence by flow cytometry. […] These histograms resemble the ones reported previously for MS-PPE, without a lipid coating, in absence and in presence of AQS.
# The kinetics of disruption of supported lipid bilayer by MLT were monitored by measuring real-time changes in fluorescence intensity by flow cytometry (FIG. 19). Suspensions of 10^6 DMPG-coated MS-PPE in 800 μL of PBS were treated with AQS at a final concentration of 10 μM, then with either sMLT, Triton X-100® detergent, or no treatment. […] Treatment with sMLT in the absence of AQS led to an increase in normalized fluorescence (FIG. 19, trace A). This can be attributed to disruption of the lipid bilayer by sMLT, and is consistent with a reversal of the slight quenching of fluorescence caused by the formation of a DMPG lipid bilayer over MS-PPE. Addition of AQS alone to DMPG-coated MS-PPE (FIG. 19, trace C) led to a 20% reduction in fluorescence as reported earlier. Addition of Triton X-100® detergent to DMPG-coated MS-PPE after the addition of AQS (first dip in trace E, FIG. 19) caused immediate decrease in fluorescence to ˜10% of its original value (second dip in trace E, FIG. 19). In contrast, addition of sMLT, after the addition of AQS, (FIG. 19, trace D) led to a gradual reduction of fluorescence intensity to ˜20% of the original value. Although MLT forms dimers at high concentrations (Dempsey, C. E. Biochim. Biophys. Acta 1990, 1031, 143-161), it is monomeric at the concentrations used in this study. On the other hand, Triton X-100® detergent forms micelles at the concentration used in this study.
# DMPG supported on MS-PPE = test: Binding curves of MLT to DMPG supported on MS-PPE (superquenching flow cytometric assay); conditions: flow cytometry, 10 μM AQS
# Description: FIGS. 18A-B show binding curves for MLT-disruption of supported lipid bilayer by natural MLT (nMLT; FIG. 18A), and synthetic MLT (sMLT; FIG. 18B). Fluorescence intensity was normalized to that without MLT as determined by flow cytometry. The error bars represent the standard deviation (SD) of the means of normalized histograms obtained for 3 replicates.
# as §1
# From FIG. 18, the association constant (corresponding to the reciprocal of the point of half saturation) for nMLT and sMLT with DMPG were 5×10^6 M^−1 and 1.7×10^6 M^−1, respectively. […] Lower concentrations of nMLT, in comparison to sMLT, were required to disrupt the DMPG lipid bilayer. This might be attributed to the fact that nMLT contains some phospholipase A2 (PLA2) as a contaminant. […]
# [5] = system: immobilized anionic DMPG membranes; conditions: surface plasmon resonance; cited from earlier work
Compound,increase in fluorescence intensity due to the membrane-melittin interaction [1],increase in fluorescence intensity of fluorescein-biotin segment [2],change in fluorescence intensity of bead segment [3],effect on the lipid bilayer (lipid bilayer),"quenching of the MS-PPE after treatment ([4]; 10 μM AQS, sMLT 3.8 μM, nMLT 1.6 μM)","fluorescence intensity, of the original value ([4]; real-time kinetics, added after 10 μM AQS (traces D, E)) [%]",association constant (reciprocal of the point of half saturation) with DMPG (DMPG supported on MS-PPE) [M⁻¹],association constant [5] [M⁻¹]
CC[C@H](C)[C@H](NC(=O)CN)C(=O)NCC(=O)N[C@@H](C)C(=O)N[C@H](C(=O)N[C@@H](CC(C)C)C(=O)N[C@@H](CCCCN)C(=O)N[C@H](C(=O)N[C@@H](CC(C)C)C(=O)N[C@H](C(=O)N[C@H](C(=O)NCC(=O)N[C@@H](CC(C)C)C(=O)N1CCC[C@H]1C(=O)N[C@@H](C)C(=O)N[C@@H](CC(C)C)C(=O)N[C@H](C(=O)N[C@@H](CO)C(=O)N[C@@H](Cc1c[nH]c2ccccc12)C(=O)N[C@H](C(=O)N[C@@H](CCCCN)C(=O)N[C@@H](CCCNC(=N)N)C(=O)N[C@@H](CCCCN)C(=O)N[C@@H](CCCNC(=N)N)C(=O)N[C@@H](CCC(N)=O)C(=O)N[C@@H](CCC(N)=O)C(N)=O)[C@@H](C)CC)[C@@H](C)CC)[C@@H](C)O)[C@@H](C)O)C(C)C)C(C)C [melittin],about 10 fold,not as high as that observed for Triton X-100,slight rise in fluorescence intensity followed by a significant decrease,total disruption of the bilayer,,,,
sMLT: synthetic melittin obtained from Sigma,,,,,comparable to that occurring on addition of Triton X-100,~20,1.7e+06,2e+06

# — patent US8334107B2, “Detection systems utilizing supported lipid bilayers” (priority 2005, dated 2012)
